Experimental data reported in US20020022586A1, “Method for treating a patient with neoplasia by treatment with a pyrimidine analog” (priority 1998, published 2002).

Tests used:
[1] = molecular target: T1, PDE peak A (PDE5) (Homo sapiens, UniProt O76074); experiment: cGMP hydrolysis by PDE peak A isolated from SW-480 cells; assay type: biochemical
T1 construct: SW-480 cells are collected and homogenized; endogenous in cells; host or cells: SW-480 human colon adenocarcinoma cells; supernatant of homogenate fractionated on DEAE-Trisacryl M

[2] = test system: HT-29 cells; experiment: cGMP levels in cultured HT-29 cells by radioimmunoassay; assay type: cell-based, human; details: HT-29 cells treated 30 minutes
[3] = test system: HT-29 cells; experiment: HT-29 growth inhibition by counting viable cells after trypan blue staining; assay type: cell-based, human; details: 120 μM, time course
Method: Growth inhibition (FIG. 9A, top) was measured by counting viable cells after trypan blue staining. Apoptosis (FIG. 9B, bottom) was measured by morphological determination following staining with acridine orange and ethidium bromide as described previously (Duke and Cohen, In: Current Protocols in Immunology, 3.17.1-3.17.16, New York, John Wiley and Sons, 1992). […] All data were collected from the same experiment.

[4] = test system: MCF7/S, Breast; experiment: Growth inhibition of various cell lines (Table 5); assay type: cell-based; details: Homo sapiens, MCF7S
Method: To show the effectiveness of cGMP-specific PDE inhibition on various forms of neoplasia, compounds were tested on numerous cell lines. […] The IC50 values were determined by the SRB assay. […] Therefore, compounds selected for cGMP-specific PDE inhibition in combination with a pyrimidine analog should be useful for treating neoplasia, in particular breast, colorectal and pancreatic cancers.

[5] = test system: HT-29 cells; experiment: Apoptosis and necrosis by morphology (acridine orange/ethidium bromide) in HT-29 cells; assay type: cell-based, human; details: 120 μM, time course
Source text: Following treatment with a test compound, cultures can be assayed for apoptosis and necrosis by fluorescent microscopy following labeling with acridine orange and ethidium bromide. The method for measuring apoptotic cell number has previously been described by Duke & Cohen, “Morphological And Biochemical Assays Of Apoptosis,” Current Protocols In Immunology, Coligan et al., eds., 3.17.1-3.17.16 (1992, which is incorporated herein by reference).
For example, floating and attached cells can be collected, and aliquots of cells can be centrifuged. The cell pellet can then be resuspended in media and a dye mixture containing acridine orange and ethidium bromide. The mixture can then be examined microscopically for morphological features of apoptosis.
Reference compounds and test compounds were analyzed for their cGMP-specific PDE inhibitory activity in accordance with the protocols for the assay, supra. […] Apoptotic and necrotic cell death was determined as previously described (Duke and Cohen, In: Current Protocols in Immunology, 3.17.1-3.17.16, New York, John Wiley and Sons, 1992). […] All data were collected from the same experiment.
The apoptosis inducing activity for a series of phosphodiesterase inhibitors was determined. HT-29 cell were treated for 6 days with various inhibitors of phosphodiesterase. Apoptosis and necrosis were determined morphologically after acridine orange and ethidium bromide labeling in accordance with the assay described, supra.

[6] = test system: premalignant lesions in mouse mammary gland organ culture; experiment: Mammary gland organ culture model; assay type: cell-based; details: for Mammary Gland Organ Culture: activity profile; for mammary gland organ culture: key: −: Not active; +: Slightly active; ++: Moderately active; +++: Strongly active; ++++: Highly active
Method: For example, female BALB/c mice can be treated with a combination of estradiol and progesterone daily, in order to prime the glands to be responsive to hormones in vitro. The animals are sacrificed and thoracic mammary glands are excised aseptically and incubated for ten days in growth media supplemented with insulin, prolactin, hydrocortisone, and aldosterone. DMBA (7,12-dimethylbenz(a)anthracene) is added to medium to induce the formation of premalignant lesions. Fully developed glands are then deprived of prolactin, hydrocortisone, and aldosterone, resulting in the regression of the glands but not the premalignant lesions.
The test compound is dissolved in DMSO and added to the culture media for the duration of the culture period. At the end of the culture period, the glands are fixed in 10% formalin, stained with alum carmine, and mounted on glass slides. The extent of the area occupied by the mammary lesions can be quantitated by projecting an image of the gland onto a digitation pad. The area covered by the gland is traced on the pad and considered as 100% of the area. The space covered by each of the unregressed structures is also outlined on the digitization pad and quantitated by the computer.
The incidence of forming mammary lesions is the ratio of the glands with mammary lesions to […]. The incidence of mammary lesions in test compound treated glands is compared with that of the untreated glands.
Mammary gland organ culture experiments were performed as previously described (Mehta and Moon, Cancer Research, 46: 5832-5835, 1986). […] The data support the hypothesis that cyclooxygenase inhibition is not necessary for the anti-neoplastic properties of desired compounds.

[7] = test system: COX; experiment: COX inhibition; assay type: biochemical
[8] = test system: cGMP-PDE; experiment: cGMP-PDE inhibition assay, enzyme from HT-29 tumor cells; assay type: biochemical, human; parameters: PDE Inhibition: key to the marks not given beside the values; details: activity profile
[9] = test system: T2, cGMP-PDE; experiment: as above; assay type: biochemical, human; parameters: PDE Inhibition: key to the marks not given beside the values
T2 construct: other: 10 μM; other: 100 μM; other: enzyme from HT-29 cells; other: 20 μM

[10] = test system: PDE4; experiment: PDE4 inhibition assay, enzyme from HT-29 tumor cells; assay type: biochemical, human; details: enzyme from HT-29 cells
Method: Cyclic GMP labeled with tritium (^3H-cGMP) is used as the substrate for the PDE enzymes. (Thompson, W. J., Teraski, W. L., Epstein, P. M., Strada, S. J., Advances in Cyclic Nucleotide Research, 10:69-92, 1979, which is incorporated herein by reference).
In brief, a solution of defined substrate ^3H-cGMP specific activity is mixed with the drug to be tested. The mixture is incubated with isolated PDE activity (either a single PDE or a mixture of PDE activities). The degree of phosphodiesterase inhibition is determined by calculating the amount of radioactivity released in drug-treated reactions and comparing those against a control sample (a reaction mixture lacking the tested compound but with the drug solvent).
Reference compounds and test compounds were analyzed for their cGMP-PDE inhibitory activity in accordance with the protocol for the assay described supra. […] Both compounds show selectivity for the cGMP-PDE isoenzyme forms over PDE4 isoforms.

[11] = test system: HT-29 cells; experiment: HT-29 tumor cell growth inhibition, SRB assay; assay type: cell-based, human; parameters: Growth Inhibition: key to the marks not given beside the values
[12] = test system: HT-29 cells; experiment: Apoptosis by DNA fragmentation assay in HT-29 cells; assay type: cell-based, human; parameters: Apoptosis: key to the marks not given beside the values

SMILES	IC50 [1] [µM]	increase of cGMP levels [2]	growth inhibition, viable cell count [3]	IC50 [4] [µM]	apoptosis by morphology [5]	Mammary Gland Organ Culture [6]	inhibition of premalignant lesions ([6]; mammary gland organ culture)	COX Inhibition ([7]; activity profile)	PDE Inhibition [8]	cGMP PDE % Inhibition at 100 μM ([9]; 100 μM) [%]	IC50 ([9]; enzyme from HT-29 cells) [µM]	IC50 [10] [µM]	inhibition at 100 µM ([11]; Homo sapiens, HT-29, 100 μM single dose, read-out: Growth inhibitory activity, % Inhibition at 100 μM) [%]	Growth Inhibition ([11]; activity profile)	fold induction at 100 µM ([12]; Homo sapiens, HT-29, 100 μM, read-out: Apoptosis inducing activity, Fold induction at 100 μM)	EC50 ([12]; Homo sapiens, HT-29, 48 hours, DNA fragmentation, read-out: EC50 for apoptosis induction) [µM]	Apoptosis ([12]; activity profile)	COX Inhibition ([7]; 100 μM)
CSc1ccc(/C=C2/C(C)=C(CC(=O)O)c3cc(F)ccc32)cc1 [Sulindac sulfide]	50	greater than 50%	capable of inhibiting tumor cell growth	30	increase in apoptosis	−	inactive	++++										
COc1cc(/C=C2/C(C)=C(CC(=O)O)c3cc(F)ccc32)cc(OC)c1OC [Compound B, (Z)-5-Fluoro-2-methyl-1-(3,4,5-trimethoxybenzylidene)-3-acetic acid]						++		−	+++	<25	18	58	77	+++	> 2	~175	+++	did not inhibit COX
